The source of these data is publication PMC5399635 (The Journal of Pharmacology and Experimental Therapeutics, 2017).

The structures appear in SMILES notation. “And” between values parts separate entries of the source, which are not always exact repeats. Identical values can stand only once. “Also recorded” adds a separate entry of the source. Like-named read-outs stand apart in the source and are kept apart here.

Data set [1] concerns the target T1, rat κ-opioid receptor (Rattus norvegicus, UniProt P34975).
T1 construct: expressed in transfected cells; host or cells: CHO cells
Briefly: Radioligand binding, κ-opioid receptor ([3H]U69593). The procedure:
Competitive inhibition studies were performed on cloned opioid receptors expressed in membranes of Chinese hamster ovary (CHO) cells and conducted in triplicate (n = 3 independent experiments).
Radioligand binding assays were performed to evaluate the ability of these agents to inhibit specific radioligand binding to cloned opioid receptor subtypes. Half-maximal inhibitory concentration (IC50), equilibrium dissociation constant for the inhibitor (Ki), and negative log of the equilibrium dissociation constant for the inhibitor (pKi) values were obtained. The receptor binding methods used for µ ([Zhang et al., 1998])-, δ ([Simonin et al., 1994])-, and κ ([Meng et al., 1993])-opioid receptors have been described previously, with the exception that 100 mM NaCl was added to the incubation buffer in the µ-opioid receptor binding assay. All assays were conducted in 200-µl volume. All assay incubations were terminated by filtration, and bound radioligand was quantitated by liquid scintillation spectrometry. The IC50 values were determined by nonlinear regression analysis of the competition curves generated with the mean of duplicate values using Hill equation curve fitting. The inhibition constants (Ki) were calculated using the Cheng-Prusoff equation. The pKi results from three independent experiments were analyzed for significant differences by one-way analysis of variance (ANOVA) followed by Bonferroni multiple comparison test.

Data set [2] addresses T2, human κ-opioid receptor (Homo sapiens, UniProt P41145).
T2 construct: expressed in transfected cells; host or cells: HEK-293 cells
Briefly: [35S]GTPγS functional assay, κ-opioid receptor (HEK-293 membranes). It counts as biochemical. The procedure: (§1) These were single experiments conducted across a range of 12 half-log concentrations, from […], with 1 replicate per concentration; experimental conditions were as described for [^35S]GTPγS binding experiments with human recombinant µ-opioid receptors. Functional activity at κ-opioid receptors was also determined in an isolated tissue preparation from the rabbit vas deferens, using methods detailed previously ([Oka et al., 1981]).

Data set [3] concerns the target T3, κ-opioid receptors (Oryctolagus cuniculus, UniProt G1SJ19).
T3 construct: isolated tissue preparation from the rabbit vas deferens; from tissue; host or cells: rabbit vas deferens
The data set can be described thus: Isolated field-stimulated rabbit vas deferens assay. The settings on record: concentrations up to 10 µM. The procedure: as §1

The subject of data set [4] is Caco2 cells.
For data set [5], the system named is peripheral and central effects of morphine. The arrangement: method as in Eldon et al., 2015. The settings on record: healthy male volunteers administered morphine; ref Eldon et al., 2015; cited from earlier work.
Details of data set [6]: method as in Bui et al., 2016. The conditions noted are these: quinidine; ref Bui et al., 2016; cited from earlier work.
Data set [7] can be described thus: in vitro. The conditions noted are these: human; for Papp A→B at 2 h, 10 μM: Caco-2, pH 7.4, Papp A→B; for Papp B→A at 2 h, 10 μM: Caco-2, pH 7.4, Papp B→A.
The subject of data set [8] is morphine-induced antinociception. Briefly: Hot plate model of nociception, antagonism of morphine. The settings on record: Rattus norvegicus, po, read-out: ED50, antagonism of morphine analgesia.
Data set [9] has as its system morphine-induced inhibition of gastrointestinal transit. The data set can be described thus: Gastrointestinal transit model (charcoal meal), antagonism of morphine.
The mark [10] stands for this setting: no P-gp inhibitor, mean of 3 experiments.

T1 sequence (P34975 whole entry): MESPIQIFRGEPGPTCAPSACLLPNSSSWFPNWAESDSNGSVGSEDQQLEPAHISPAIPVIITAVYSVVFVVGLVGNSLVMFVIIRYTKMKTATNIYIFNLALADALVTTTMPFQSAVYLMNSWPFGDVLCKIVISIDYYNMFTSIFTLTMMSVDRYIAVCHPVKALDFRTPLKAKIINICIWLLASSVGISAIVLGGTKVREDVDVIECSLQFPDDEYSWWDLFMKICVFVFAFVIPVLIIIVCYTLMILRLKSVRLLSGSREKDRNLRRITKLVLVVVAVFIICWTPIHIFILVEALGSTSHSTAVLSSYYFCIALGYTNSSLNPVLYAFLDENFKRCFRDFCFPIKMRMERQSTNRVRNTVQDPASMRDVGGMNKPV
T2 sequence (P41145 whole entry): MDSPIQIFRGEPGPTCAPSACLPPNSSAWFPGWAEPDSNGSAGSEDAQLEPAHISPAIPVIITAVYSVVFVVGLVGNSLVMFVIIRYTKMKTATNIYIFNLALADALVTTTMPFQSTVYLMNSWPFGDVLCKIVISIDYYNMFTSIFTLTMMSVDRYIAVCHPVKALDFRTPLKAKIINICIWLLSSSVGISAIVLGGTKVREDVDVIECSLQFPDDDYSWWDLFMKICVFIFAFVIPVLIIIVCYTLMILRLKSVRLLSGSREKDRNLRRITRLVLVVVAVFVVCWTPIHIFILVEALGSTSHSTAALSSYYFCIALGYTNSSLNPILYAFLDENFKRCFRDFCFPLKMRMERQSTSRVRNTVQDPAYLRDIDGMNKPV
T3 sequence (G1SJ19 1-383): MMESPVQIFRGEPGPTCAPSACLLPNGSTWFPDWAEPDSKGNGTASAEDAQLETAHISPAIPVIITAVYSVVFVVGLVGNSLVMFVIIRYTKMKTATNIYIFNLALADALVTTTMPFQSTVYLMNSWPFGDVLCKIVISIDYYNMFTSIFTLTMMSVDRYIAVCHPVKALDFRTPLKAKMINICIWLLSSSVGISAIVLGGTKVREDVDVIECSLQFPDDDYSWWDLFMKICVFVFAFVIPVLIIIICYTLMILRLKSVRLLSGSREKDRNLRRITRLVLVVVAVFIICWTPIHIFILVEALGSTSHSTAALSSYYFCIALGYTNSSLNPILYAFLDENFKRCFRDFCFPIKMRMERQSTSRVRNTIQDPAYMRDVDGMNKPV

Regarding `C=CCN1CC[C@]23c4c5ccc(O)c4O[C@H]2[C@@H](OCCOCCOCCOCCOCCOCCOCCOC)CC[C@@]3(O)[C@H]1C5` [Naloxegol, naloxegol], the Ki in data set [1] (cloned rat κ-opioid receptors, read-out: geometric mean Ki) was 8.65 nM and 8.6 nM; in [1] (no measure named, read-out: κ-opioid receptor value expressed as plasma concentration (Fig. 5) (converted)), 8.59 nM. Also, the half-maximal inhibitory concentration (IC50) in data set [2] (U69593 100 nM, read-out: IC50 (inhibition of response to U69593)) was 37 nM. Moreover, the inhibition at 100 µM in [2] (at 100 µM, read-out: maximal inhibition of response to U69593) is 62%. The EC50 in [2] (read-out: EC50 (agonism)) turned out to be 47 nM. The Emax in data set [2] (read-out: maximal effect, agonism relative to U69593) stood at 39%. Further, the “agonist activity at κ-opioid receptors” value in data set [3] is on record as “no agonist activity”. The “efflux transporter substrate status” value in data set [4] is given as “substrate for at least one apically directed efflux transporter, likely the P-gp transporter; also recorded: substrate for the P-glycoprotein transporter”. The “effect on morphine-induced miosis” value in data set [5] is “no change in morphine-induced miosis”. Also, the “effect on orocecal transit time” value in data set [5] is recorded as “reduced orocecal transit time”. Also, the “CNS distribution when coadministered with a strong P-gp inhibitor” value in [6] is “unaffected”. Moreover, the Papp A→B at 2 h, 10 μM in [7] (Cyclosporin A) amounted to 1.8 ×10⁻⁶ cm/s; in data set [7] (Elacridar, 0.5 μM), 2.3 ×10⁻⁶ cm/s; in data set [7] (Verapamil, 100 μM), 1.3 ×10⁻⁶ cm/s; in [7] (setting [10]) it was 0.7 ×10⁻⁶ cm/s. For the same compound, the Papp B→A at 2 h, 10 μM stood at 1.8 ×10⁻⁶ cm/s in data set [7] (Cyclosporin A); 2.5 ×10⁻⁶ cm/s in data set [7] (Elacridar, 0.5 μM); 1.7 ×10⁻⁶ cm/s in data set [7] (Verapamil, 100 μM); 8.4 ×10⁻⁶ cm/s in data set [7] (setting [10]). Moreover, the ED50 in [8] is 55.4 mg/kg; in data set [9] (Rattus norvegicus, read-out: ED50, antagonism of morphine in GI transit), 23.1 mg/kg. For the same compound, the “oral dose that completely reversed the effect of morphine” value in data set [9] (GI transit assay, rat) came to 90 mg/kg. In addition, the “times less potent than naloxone” value in data set [9] (comparison of ED50 values) is listed as “approximately 33 fold”. Moreover, in data set [9] (rat, GI transit versus hot plate), the “separation in PNS versus CNS effect” value is reported as “twofold”.
